# Reference: paper PMC12973313 (Chemical Science, 2026)
# “And” between values parts separate entries of the source, which are not always exact repeats. Equal values may be shown once. Read-outs that look alike come from different tables or passages of the source.
# Tests used:
# S. aureus ATCC 9144 = assay: MIC assay; format: cell-based, Staphylococcus aureus
# Experimental: (§1) Next generation SSAs 3, 5, 7, and 9 were specifically designed to increase the activity of SSAs against both drug susceptible and resistant S. aureus and ovarian cancer cells. […] These strains include: (i) USA300, a common clinically relevant, methicillin resistant strain;[47] […]
# (§2) Section S3: Biological methods […]
# (§3) Preparation of bacterial plates : Sterile TSB agar plates were streaked using the desired […]
# (§4) Preparation of inoculum: An initial culture was made up by inoculating TSB (5 mL) with 3 single colonies of the desired bacteria under sterile conditions and incubated at 37 °C overnight. The optical density at 600 nm (OD 600) was adjusted using sterile distilled H 2O (dH2O) to equal ~1 x 10^6 bacteria/mL.
# (§5) Preparation of 96 -well microplate : A solution of each compound in H2O/5 % EtOH was made […]
# (§6) The compound solution (200 […]
# (§7) µL) was added to and diluted 50:50 down the plate. The bacterial suspension (100 µL) was dispensed into each well under sterile conditions. […]
# S. aureus NCTC 13616 = assay: MIC assay; format: cell-based, Staphylococcus aureus
# Experimental: as §1, §2, §3, §4, §5, §6, §7
# S. aureus 1199B = assay: microbe, parasite or virus in culture; format: cell-based, Staphylococcus aureus; conditions: for MIC: Staphylococcus aureus, 1199B; for MIC (mM) S. aureus 1199B: lowest concentration with no visible growth; for MIC 1199B: total molecular concentration
# Experimental: as §1, §2, §3, §4, §5, §6, §7
# E. Faecalis NCTC 775 = assay: MIC assay; format: cell-based, Enterococcus faecalis; conditions: for MIC: Enterococcus faecalis, NCTC775, lowest concentration with no visible growth
# Experimental: as §2
# Preparation of bacterial plates : Sterile TSB agar plates were streaked using the desired bacteria [Staphylococcus aureus (9144, 13616, USA 300 and 1199B ), Enterococcus faecalis (NCTC 775 and 12201 ) and Enterococcus faecium (NCTC 12204)] and incubated at 37 °C […]
# as §4, §5
# . The compound solution (200
# […]. The bacterial suspension (100 µL) was dispensed into each well under sterile conditions. The plates were sealed using parafilm and incubated at 37 °C for 20 hours, after which the OD 600 was measured.
# [1] = test system: Galleria mellonella larvae; assay: G. mellonella toxicity assay; format: in vivo; conditions: out of 10, 10 µL of 5 mM in H2O/EtOH 19:1, 37 °C
# Experimental: Finally, we gauged the toxicity of SSAs 1, 3, 5, 7, and 9 as either homogenous solutions or heterogenous (1 : 1) enantiomeric mixtures towards multicellular organisms which have an intrinsic immune system.[66] Here, Galleria mellonella larvae were injected with 10 µL of SSA (5 mM) in a distilled H2O/EtOH 19 : 1 solution and then incubated at 37 °C for a maximum of five days and the number of surviving larvae recorded each day. […]. […]
# G. mellonella treatment assay: G. mellonella larvae were purchased from Livefood UK Ltd.
# (Rooks Bridge, UK) and maintained on wood chips in the dark at 15 °C until use. Galleria
# larvae were injected with 10 µL of compound in H2O/5 % EtOH, incubated at 37 °C for 5 days
# and the deaths counted. Groups of 10 Galleria were injected per compound. […]
# [2] = Quantitative 1H NMR, DMSO-d6 1% DCM (self-association); format: physicochemical; conditions: 112 mM, 298 K, proportion NMR silent
# Text: Initially, quantitative (Q) ^1H NMR spectroscopy experiments were undertaken in DMSO-d6 1% DCM, using the DCM as an internal standard to identify the presence of either low or high order SSA self-associated aggregates. Here, low-order SSA self-associated aggregates are defined as those directly observable using traditional solution state ^1H NMR spectroscopy such as the formation of hydrogen bonded anionic dimers. To determine the presence of low or high-order SSA aggregates, signals corresponding to the anionic or cationic component of the SSA are integrated against those of the internal DCM standard.
# [3] = 1H NMR DOSY, DMSO-d6 0.5% H2O; format: physicochemical; conditions: 298 K; for dH (nm), hydrodynamic diameter, anionic component: 1H NMR DOSY, DMSO-d6 0.5% H2O, 112 mM; for Hydrodynamic diameter (nm) Cationic component: DMSO-d6/0.5 % H2O
# [4] = 1H NMR dilution study, self-association constants (Bindfit v0.5); format: physicochemical; conditions: 298 K; for Kdim, CoEK model / Ke, CoEK model / Ke, EK model / ρ, CoEK model: DMSO-d6/0.5 % H2O; for Kdim / Kdim (M^-1): equal K/dimerization model, DMSO-d6 0.5% H2O
# Experimental: This enables the quantification of parameters such as SSA anion dimerization constant which we have shown to correlate with critical aggregation concentration (CAC) values obtained from aqueous solutions of that same SSA.[30]
# Figure S40 – Graph illustrating the 1H NMR down-field change in chemical shift of urea NH
# resonances with increasing concentration of 9 in DMSO-d6/0.5 % H2O (298 K).
# Self-association constant calculation: values were calculated from data gathered from both
# NH’s and fitted to the Cooperative Equal K (CoEK) and Equal K/ dimerization binding models.
# Equal K/Dimerization model:
# Table S8- The self-association constants (Ke and Kdim) calculated for 3, 5, 7 and 9 in DMSO-d6/
# 0.5 % H2O solution at 298 K. Constants were obtained for the EK and CoEK models by fitting
# 1H NMR self-association data to Bindfit v0.5.
# EK model (M-1) CoEK model (M-1)
# Compound Ke Error Kdim Error Ke Error Kdim Error ⍴ Error
# (± %) (± %) (± %) (± %) (± %)
# (1 picture or pasted object on this page, not shown here)
# [5] = Quantitative 1H NMR, D2O 5% EtOH (self-association); format: physicochemical; conditions: 5.56 mM, 298 K, proportion NMR silent
# Text: However, when supplied as a 1 : 1 enantiomeric mixture, although the trend in increased incorporation of 7 + 9 over 3 + 5 into the higher order aggregate structure was retained from previous observations in polar organic solvents, the total proportion of SSA incorporated into these higher order structures was approximately 20% lower (from ≈ 50% to ≈ 30%) for the 1 : 1 enantiomeric mixture of 3 + 5 over the homogenous solution of those same SSAs.
# [6] = Surface tension (pendant drop) / CAC determination, H2O 5% EtOH; format: physicochemical; conditions: for Surface tension (mN m^-1): H2O 5% EtOH, at limit of SSA solubility = 5.56 mM
# Text: Here, the CAC is defined as the concentration at which any additional SSA added to a solution will result in the production of high-order self-associated species. […] To determine CAC, we used the pendant drop method to elucidate the surface tension of H2O 5% EtOH solutions of 1, 3, 5, 7, 9, and 1 : 1 SSA enantiomeric mixtures at 291 K (Table 2).
# [7] = Staphylococcus aureus, ATCC9144, 15 h, total molecular concentration, after 900 min, read-out: MIC ATCC 9144
# [8] = Staphylococcus aureus, ATCC9144, lowest concentration with no visible growth, read-out: MIC (mM) S. aureus 9144
# [9] = Staphylococcus aureus, NCTC13616, 15 h, total molecular concentration, after 900 min, read-out: MIC NCTC 13616
# [10] = Staphylococcus aureus, NCTC13616, lowest concentration with no visible growth, read-out: MIC (mM) S. aureus 13616
# [11] = lowest concentration with no visible growth, listed as 5
smiles,measurement,setting,value
O=C(O)CNC(=O)Nc1ccc(C(F)(F)F)cc1 [SSA 1],MIC,S. aureus ATCC 9144; [7],1.39 mM
same,MIC,S. aureus ATCC 9144; [8],1.39 mM
same,MIC,S. aureus NCTC 13616; [9],> 2.78 mM
same,MIC,S. aureus NCTC 13616; [10],> 2.78 mM
same,MIC,"S. aureus 1199B; 15 h, read-out: MIC 1199B, total molecular concentration, after 900 min",> 2.78 mM
same,MIC,"S. aureus 1199B; read-out: MIC (mM) S. aureus 1199B, lowest concentration with no visible growth",> 2.78 mM
same,MIC,E. Faecalis NCTC 775,> 2.78 mM
same,Galleria moth larvae survived Day 1,[1],10
same,Galleria moth larvae survived Day 2,[1],9
same,Galleria moth larvae survived Day 3,[1],8
same,Galleria moth larvae survived Day 4,[1],6
same,Galleria moth larvae survived Day 5,[1],6
CC(C)CC(NC(=O)Nc1ccc(C(F)(F)F)cc1)C(=O)O (stereo not shown) [SSA 3],Q NMR (%) SSA anion,[2],0%
same,Q NMR (%) SSA cation,[2],0%
same,"dH (nm), hydrodynamic diameter, anionic component",[3]; listed as 3,1.66 nm and 1.7 nm
same,Hydrodynamic diameter (nm) Cationic component,[3]; listed as 3,1.26 nm
same,"Kdim, CoEK model",[4]; listed as 3,280.45 M⁻¹
same,"Ke, CoEK model",[4]; listed as 3,560.90 M⁻¹
same,"Ke, EK model",[4]; listed as 3,242.72 M⁻¹
same,"ρ, CoEK model",[4]; listed as 3,2.29
same,Kdim,[4]; listed as 3,121.36 M⁻¹
same,Kdim (M^-1),[4]; listed as 3,121 (±1.9%) M^−1
same,Q NMR (%) SSA anion,[5]; listed as 3,50%
same,Q NMR (%) SSA cation,[5]; listed as 3,44%
same,Surface tension (mN m^-1),[6]; listed as 3,40.92 mN m^−1 and 40.92 ^c mN m^−1
same,CAC,"[6]; H2O/5 % EtOH, above the limit of solubility",> 5.56 mM
same,MIC,S. aureus ATCC 9144; [7],0.087 mM
same,MIC,S. aureus ATCC 9144; [8],0.087 mM
same,MIC,S. aureus NCTC 13616; [9],0.087 mM
same,MIC,S. aureus NCTC 13616; [10],0.087 mM
same,MIC (mM) S. aureus 1199B,S. aureus 1199B; listed as 3,0.087 mM
same,MIC 1199B,"S. aureus 1199B; after 900 min, listed as 3",87 µM
same,MIC,E. Faecalis NCTC 775,> 2.78 mM
same,Galleria moth larvae survived Day 2,[1],9
same,Galleria moth larvae survived Day 1,[1]; listed as 3,9
same,Galleria moth larvae survived Day 3,[1]; listed as 3,9
same,Galleria moth larvae survived Day 4,[1]; listed as 3,6
same,Galleria moth larvae survived Day 5,[1]; listed as 3,5
CC(C)CC(NC(=O)Nc1ccc(C(F)(F)F)cc1)C(=O)O (stereo not shown) [SSA 5],"dH (nm), hydrodynamic diameter, anionic component",[3]; listed as 5,1.70 nm and 1.7 nm
same,Hydrodynamic diameter (nm) Cationic component,[3]; listed as 5,1.28 nm
same,"Kdim, CoEK model",[4]; listed as 5,175.90 M⁻¹
same,"Ke, CoEK model",[4]; listed as 5,351.80 M⁻¹
same,"Ke, EK model",[4]; listed as 5,180.55 M⁻¹
same,"ρ, CoEK model",[4]; listed as 5,3.41
same,Kdim,[4]; listed as 5,90.27 M⁻¹
same,Kdim (M^-1),[4]; listed as 5,90 (±3.2%) M^−1
same,Q NMR (%) SSA anion,[5]; listed as 5,52%
same,Q NMR (%) SSA cation,[5]; listed as 5,48%
same,Surface tension (mN m^-1),[6]; listed as 5,40.92 mN m^−1 and 40.92 ^c mN m^−1
same,MIC (mM) S. aureus 9144,S. aureus ATCC 9144; [11],0.174 mM
same,MIC,"S. aureus ATCC 9144; total molecular concentration, after 900 min, listed as 5, read-out: MIC ATCC 9144",0.174 mM
same,MIC (mM) S. aureus 13616,S. aureus NCTC 13616; lowest concentration with no visible growth,0.087 mM
same,MIC,"S. aureus NCTC 13616; total molecular concentration, after 900 min, read-out: MIC NCTC 13616",0.087 mM
same,MIC (mM) S. aureus 1199B,S. aureus 1199B; listed as 5,2.780 mM
same,MIC 1199B,"S. aureus 1199B; after 900 min, listed as 5",2780 µM
same,MIC (mM) E. Faecalis NCTC 775,E. Faecalis NCTC 775; [11],2.780 mM
same,Galleria moth larvae survived Day 2,[1],9
same,Galleria moth larvae survived Day 1,[1]; listed as 5,10
same,Galleria moth larvae survived Day 3,[1]; listed as 5,8
same,Galleria moth larvae survived Day 4,[1]; listed as 5,8
same,Galleria moth larvae survived Day 5,[1]; listed as 5,8
